Assay results: ChEMBL document CHEMBL1151840, “Synthetic oligoribonucleotides containing arabinonucleotides act as agonists of TLR7 and 8” (Bioorg Med Chem Lett, 2009)
Activity calls are given as the source filed them. No cut-off for these calls is given here.

Columns and labels:
PBMC [1] = experiment: Stimulation of immune response in human PBMC assessed as induction of IL2R level at 150 ug/ml after 24 hrs; type: functional, cell-based
PBMC [2] = experiment: Stimulation of immune response in human PBMC assessed as induction of MIP1alpha production at 150 ug/ml after 24 hrs; type: functional, cell-based
Homo sapiens [3] = organism: Homo sapiens; experiment: Stimulation of immune response in human pDC assessed as induction of MIP1alpha production at 150 ug/ml after 24 hrs; type: functional
Homo sapiens [4] = organism: Homo sapiens; experiment: Stimulation of immune response in human pDC assessed as induction of IFN-gamma production at 150 ug/ml after 24 hrs; type: functional
PBMC [5] = experiment: Stimulation of immune response in human PBMC assessed as induction of RANTES production at 150 ug/ml after 24 hrs; type: functional, cell-based
Mus musculus = experiment: Stimulation of immune response in C57BL/6 mouse assessed as induction of serum IL12 production at 50 mg/kg, sc after 2 hrs by luminex multiplex assay; type: functional, organism-based; set-up: dose 50 mg/kg
PBMC [6] = experiment: Stimulation of immune response in human PBMC assessed as induction of TNFalpha production at 150 ug/ml after 24 hrs; type: functional, cell-based
PBMC [7] = experiment: Stimulation of immune response in human PBMC assessed as induction of MIP1beta production at 150 ug/ml after 24 hrs; type: functional, cell-based
Homo sapiens [8] = organism: Homo sapiens; experiment: Stimulation of immune response in human pDC assessed as induction of IFNalpha production at 150 ug/ml after 24 hrs; type: functional
PBMC [9] = experiment: Stimulation of immune response in human PBMC assessed as induction of IFN-gamma production at 150 ug/ml after 24 hrs; type: functional, cell-based
PBMC [10] = experiment: Stimulation of immune response in human PBMC assessed as induction of IL1-beta production at 150 ug/ml after 24 hrs; type: functional, cell-based
Homo sapiens [11] = organism: Homo sapiens; experiment: Stimulation of immune response in human pDC assessed as induction of MIP1beta production at 150 ug/ml after 24 hrs; type: functional
PBMC [12] = experiment: Stimulation of immune response in human PBMC assessed as induction of IFNalpha production at 150 ug/ml after 24 hrs; type: functional, cell-based
PBMC [13] = experiment: Stimulation of immune response in human PBMC assessed as induction of IL12 production at 150 ug/ml after 24 hrs; type: functional, cell-based
PBMC [14] = experiment: Stimulation of immune response in human PBMC assessed as induction of IL8 production at 150 ug/ml after 24 hrs; type: functional, cell-based
PBMC [15] = experiment: Stimulation of immune response in human PBMC assessed as induction of MCP1 production at 150 ug/ml after 24 hrs; type: functional, cell-based
[16] = molecular target: T1, Toll-like receptor 7 (Homo sapiens) (UniProt Q9NYK1); experiment: Agonist activity at human TLR7 expressed in HEK293XL cells assessed as NF-kappaB activation after 18 hrs; type: functional, cell-based
T1 sequence (whole entry): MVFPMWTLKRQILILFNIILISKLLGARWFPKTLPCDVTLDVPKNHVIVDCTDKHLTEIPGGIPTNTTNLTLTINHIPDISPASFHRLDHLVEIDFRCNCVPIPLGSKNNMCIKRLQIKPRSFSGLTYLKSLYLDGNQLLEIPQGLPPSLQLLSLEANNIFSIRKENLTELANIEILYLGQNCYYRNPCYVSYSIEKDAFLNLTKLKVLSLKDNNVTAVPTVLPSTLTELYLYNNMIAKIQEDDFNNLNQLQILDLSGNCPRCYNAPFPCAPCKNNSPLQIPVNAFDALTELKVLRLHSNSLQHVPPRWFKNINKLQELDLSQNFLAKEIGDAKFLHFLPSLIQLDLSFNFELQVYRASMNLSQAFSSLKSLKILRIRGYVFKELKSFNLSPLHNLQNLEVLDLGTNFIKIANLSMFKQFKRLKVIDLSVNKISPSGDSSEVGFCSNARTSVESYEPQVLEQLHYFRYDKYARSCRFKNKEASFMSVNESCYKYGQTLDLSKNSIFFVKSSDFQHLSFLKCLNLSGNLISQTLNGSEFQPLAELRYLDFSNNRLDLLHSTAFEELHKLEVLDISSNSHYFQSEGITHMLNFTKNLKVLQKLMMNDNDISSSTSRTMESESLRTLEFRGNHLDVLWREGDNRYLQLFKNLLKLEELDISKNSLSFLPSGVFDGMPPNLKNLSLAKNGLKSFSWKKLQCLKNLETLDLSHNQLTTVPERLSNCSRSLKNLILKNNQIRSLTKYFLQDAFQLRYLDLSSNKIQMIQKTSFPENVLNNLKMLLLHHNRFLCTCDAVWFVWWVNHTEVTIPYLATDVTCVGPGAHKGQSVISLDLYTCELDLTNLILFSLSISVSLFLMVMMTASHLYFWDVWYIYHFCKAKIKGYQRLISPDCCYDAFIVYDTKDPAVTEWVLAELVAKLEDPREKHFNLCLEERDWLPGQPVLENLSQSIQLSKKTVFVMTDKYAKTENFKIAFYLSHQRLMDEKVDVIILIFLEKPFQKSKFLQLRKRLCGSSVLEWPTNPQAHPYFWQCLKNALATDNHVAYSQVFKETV

Homo sapiens [17] = organism: Homo sapiens; experiment: Stimulation of immune response in human pDC assessed as induction of IL12 production at 150 ug/ml after 24 hrs; type: functional
Homo sapiens [18] = organism: Homo sapiens; experiment: Stimulation of immune response in human pDC assessed as induction of TNFalpha production at 150 ug/ml after 24 hrs; type: functional
[19] = molecular target: T2, Toll-like receptor 8 (Homo sapiens) (UniProt Q9NR97); experiment: Agonist activity at human TLR8 expressed in HEK293XL cells assessed as NF-kappaB activation after 18 hrs; type: functional, cell-based
T2 sequence (whole entry): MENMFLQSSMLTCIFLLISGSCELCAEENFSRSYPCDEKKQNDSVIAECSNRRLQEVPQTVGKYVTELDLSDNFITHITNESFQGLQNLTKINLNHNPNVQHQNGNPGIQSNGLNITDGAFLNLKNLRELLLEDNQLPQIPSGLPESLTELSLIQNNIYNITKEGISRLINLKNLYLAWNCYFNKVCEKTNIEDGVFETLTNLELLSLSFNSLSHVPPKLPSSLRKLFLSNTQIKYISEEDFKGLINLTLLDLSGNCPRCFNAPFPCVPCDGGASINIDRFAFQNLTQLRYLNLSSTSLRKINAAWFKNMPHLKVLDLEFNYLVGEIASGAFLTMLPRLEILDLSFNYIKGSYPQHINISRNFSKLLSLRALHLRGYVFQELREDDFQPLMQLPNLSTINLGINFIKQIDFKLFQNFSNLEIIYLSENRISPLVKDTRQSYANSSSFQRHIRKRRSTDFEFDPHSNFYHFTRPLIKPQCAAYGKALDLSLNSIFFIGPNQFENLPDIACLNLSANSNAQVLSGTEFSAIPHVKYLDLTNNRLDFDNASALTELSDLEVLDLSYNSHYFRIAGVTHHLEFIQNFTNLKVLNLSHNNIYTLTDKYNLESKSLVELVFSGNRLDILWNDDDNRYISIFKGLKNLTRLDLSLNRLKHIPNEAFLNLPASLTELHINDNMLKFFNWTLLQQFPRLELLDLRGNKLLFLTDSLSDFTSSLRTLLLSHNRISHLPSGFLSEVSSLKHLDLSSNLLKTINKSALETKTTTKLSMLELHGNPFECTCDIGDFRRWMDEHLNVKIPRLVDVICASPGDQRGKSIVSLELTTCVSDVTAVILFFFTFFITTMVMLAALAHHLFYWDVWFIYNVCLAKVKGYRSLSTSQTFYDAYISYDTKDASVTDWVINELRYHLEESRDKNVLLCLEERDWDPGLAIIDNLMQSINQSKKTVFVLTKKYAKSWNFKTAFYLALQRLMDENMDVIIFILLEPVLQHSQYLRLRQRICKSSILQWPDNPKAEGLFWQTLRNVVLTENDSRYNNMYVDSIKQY

PBMC [20] = experiment: Stimulation of immune response in human PBMC assessed as induction of IL10 production at 150 ug/ml after 24 hrs; type: functional, cell-based
[21] = Stability in human serum assessed as full-length compound remaining after 10 mins by anion-exchange HPLC; type: ADME, cell-free; details: read-out: Stability

Structure (SMILES): Nc1ccn([C@@H]2O[C@H](COP(=O)(S)O[C@H]3[C@@H](O)[C@H](n4cnc5c(N)ncnc54)O[C@@H]3COP(=O)(S)O[C@H]3[C@@H](O)[C@H](n4cnc5c(=O)[nH]c(N)nc54)O[C@@H]3COP(=O)(S)O[C@H]3[C@@H](O)[C@H](n4ccc(=O)[nH]c4=O)O[C@@H]3COP(=O)(S)O[C@H]3[C@@H](O)[C@H](n4cnc5c(=O)[nH]c(N)nc54)O[C@@H]3COP(=O)(S)O[C@H]3[C@@H](O)[C@H](n4ccc(=O)[nH]c4=O)O[C@@H]3COP(=O)(S)O[C@H]3[C@@H](O)[C@H](n4cnc5c(=O)[nH]c(N)nc54)O[C@@H]3COP(=O)(S)O[C@H]3[C@@H](O)[C@H](n4ccc(=O)[nH]c4=O)O[C@@H]3COP(=O)(S)O[C@H]3[C@@H](O)[C@H](n4ccc(=O)[nH]c4=O)O[C@@H]3COP(=O)(S)O[C@H]3[C@@H](O)[C@H](n4cnc5c(=O)[nH]c(N)nc54)O[C@@H]3COP(=O)(S)O[C@H]3[C@@H](O)[C@H](n4ccc(=O)[nH]c4=O)O[C@H]3CO)[C@@H](OP(=O)(S)OCC(O)COP(=O)(S)O[C@H]3[C@@H](O)[C@H](n4ccc(N)nc4=O)O[C@@H]3COP(=O)(S)O[C@H]3[C@@H](O)[C@H](n4cnc5c(N)ncnc54)O[C@@H]3COP(=O)(S)O[C@H]3[C@@H](O)[C@H](n4cnc5c(=O)[nH]c(N)nc54)O[C@@H]3COP(=O)(S)O[C@H]3[C@@H](O)[C@H](n4ccc(=O)[nH]c4=O)O[C@@H]3COP(=O)(S)O[C@H]3[C@@H](O)[C@H](n4cnc5c(=O)[nH]c(N)nc54)O[C@@H]3COP(=O)(S)O[C@H]3[C@@H](O)[C@H](n4ccc(=O)[nH]c4=O)O[C@@H]3COP(=O)(S)O[C@H]3[C@@H](O)[C@H](n4cnc5c(=O)[nH]c(N)nc54)O[C@@H]3COP(=O)(S)O[C@H]3[C@@H](O)[C@H](n4ccc(=O)[nH]c4=O)O[C@@H]3COP(=O)(S)O[C@H]3[C@@H](O)[C@H](n4ccc(=O)[nH]c4=O)O[C@@H]3COP(=O)(S)O[C@H]3[C@@H](O)[C@H](n4cnc5c(=O)[nH]c(N)nc54)O[C@@H]3COP(=O)(S)O[C@H]3[C@@H](O)[C@H](n4ccc(=O)[nH]c4=O)O[C@@H]3CO)[C@H]2O)c(=O)n1 (stereo in doubt; 5)
- Activity (PBMC [1]): Active
- Activity (PBMC [2]): Active
- Activity (Homo sapiens [3]): Active
- Activity (Homo sapiens [4]): Active
- Activity (PBMC [5]): Active
- Activity (Mus musculus): inactive
- Activity (PBMC [6]): Active
- Activity (PBMC [7]): Active
- Activity (Homo sapiens [8]): inactive
- Activity (PBMC [9]): Active
- Activity (PBMC [10]): Active
- Activity (Homo sapiens [11]): Active
- Activity (PBMC [12]): Active
- Activity (PBMC [13]): Active
- Activity (PBMC [14]): Active
- Activity (PBMC [15]): Active
- Activity [16]: inactive
- Activity (Homo sapiens [17]): Active
- Activity (Homo sapiens [18]): Active
- Activity [19]: Dose-dependent effect
- Activity (PBMC [20]): Active

Structure (SMILES): Nc1ccn([C@@H]2O[C@H](COP(=O)(S)O[C@H]3[C@@H](O)[C@H](n4cnc5c(N)ncnc54)O[C@@H]3COP(=O)(S)O[C@H]3[C@@H](O)[C@H](n4cnc5c(=O)[nH]c(N)nc54)O[C@@H]3COP(=O)(S)O[C@H]3[C@@H](O)[C@H](n4ccc(=O)[nH]c4=O)O[C@@H]3COP(=O)(S)O[C@H]3[C@@H](O)[C@H](n4cnc5c(=O)[nH]c(N)nc54)O[C@@H]3COP(=O)(S)O[C@H]3[C@@H](O)[C@H](n4ccc(=O)[nH]c4=O)O[C@@H]3COP(=O)(S)O[C@H]3[C@@H](O)[C@H](n4cnc5c(=O)[nH]c(N)nc54)O[C@@H]3COP(=O)(S)O[C@H]3[C@@H](O)[C@H](n4ccc(=O)[nH]c4=O)O[C@@H]3COP(=O)(S)O[C@H]3[C@@H](O)[C@H](n4ccc(=O)[nH]c4=O)O[C@@H]3COP(=O)(S)O[C@H]3[C@@H](O)[C@H](n4cnc5c(=O)[nH]c(N)nc54)O[C@@H]3COP(=O)(S)O[C@H]3[C@@H](O)[C@H](n4ccc(=O)[nH]c4=O)O[C@H]3CO)[C@@H](OP(=O)(S)OCC(O)COP(=O)(S)O[C@H]3[C@@H](O)[C@H](n4ccc(N)nc4=O)O[C@@H]3COP(=O)(S)O[C@H]3[C@@H](O)[C@H](n4cnc5c(N)ncnc54)O[C@@H]3COP(=O)(S)O[C@H]3[C@@H](O)[C@H](n4cnc5c(=O)[nH]c(N)nc54)O[C@@H]3COP(=O)(S)O[C@H]3[C@@H](O)[C@H](n4ccc(=O)[nH]c4=O)O[C@@H]3COP(=O)(S)O[C@H]3[C@@H](O)[C@H](n4cnc5c(=O)[nH]c(N)nc54)O[C@@H]3COP(=O)(S)O[C@H]3[C@@H](O)[C@H](n4ccc(=O)[nH]c4=O)O[C@@H]3COP(=O)(S)O[C@H]3[C@@H](O)[C@H](n4cnc5c(=O)[nH]c(N)nc54)O[C@@H]3COP(=O)(S)O[C@H]3[C@@H](O)[C@H](n4ccc(=O)[nH]c4=O)O[C@@H]3COP(=O)(S)O[C@H]3[C@@H](O)[C@H](n4ccc(=O)[nH]c4=O)O[C@@H]3COP(=O)(S)O[C@H]3[C@@H](O)[C@H](n4cnc5c(=O)[nH]c(N)nc54)O[C@@H]3COP(=O)(S)O[C@H]3[C@@H](O)[C@H](n4ccc(=O)[nH]c4=O)O[C@@H]3CO)[C@H]2O)c(=O)n1 (stereo in doubt; 6)
- remaining at 10 min [21]: 76%
